# Target: T1, recombinant human 17β-hydroxysteroid dehydrogenase type 1 (Homo sapiens, UniProt P14061)
# T1 construct: made in house; host or cells: Sf9 insect cells (baculovirus, Bac to Bac Expression System)
# T1 sequence (P14061 1-328): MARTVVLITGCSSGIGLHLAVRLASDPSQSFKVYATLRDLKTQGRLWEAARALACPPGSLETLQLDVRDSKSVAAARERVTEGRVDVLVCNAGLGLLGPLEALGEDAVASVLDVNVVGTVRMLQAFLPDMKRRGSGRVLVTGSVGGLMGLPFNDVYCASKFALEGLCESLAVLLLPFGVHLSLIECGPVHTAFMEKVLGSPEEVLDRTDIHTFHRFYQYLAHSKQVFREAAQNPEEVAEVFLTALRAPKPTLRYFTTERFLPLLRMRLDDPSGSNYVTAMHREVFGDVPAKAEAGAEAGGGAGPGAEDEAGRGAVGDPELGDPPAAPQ
# Assay: Inhibition of recombinant human 17β-hydroxysteroid dehydrogenase type 1 (conversion of 3H-estrone to estradiol, HPLC radiodetection)
# Format: biochemical
# Settings: inhibitor 100 nM; 30 nM 3H-estrone, 1 mM NADPH, 30 min at RT
# Experimental: 17β-HSD1 purification: Recombinant baculovirus was generated by the "Bac to Bac Expression System" (Invitrogen). Recombinant bacmid was transfected to Sf9 insect cells using "Cellfectin Reagent" (Invitrogen). 60h later cells were harvested; the microsomal fraction was isolated as described by Puranen et al. (1994). Aliquots were stored frozen until determination of enzymatic activity.
# Assay - Inhibition of recombinant human 17β-hydroxysteroid dehydrogenase type 1: Recombinant protein (0.1µg/ml) was incubated in 20 mM KH2PO4 pH 7.4 with 30 nM 3H-estrone and 1 mM NADPH for 30 min at RT, in the presence of potential inhibitors at concentrations of 1 µM or 0.1 µM. Inhibitor stock solutions were prepared in DMSO. Final concentration of DMSO was adjusted to 1 % in all samples. The enzyme reaction was stopped by addition of 10 % trichloroacetic acid (final concentration). Samples were centrifuged in a microtiter plate at 4000 rpm for 10 min. Supernatants were applied to reverse phase HPLC on a Waters Symmetry C18 column, equipped with a Waters Sentry Guard column. Isocratic HPLC runs were performed at RT at a flow rate of 1 ml/min of acetonitrile:water 48:52 as running solvent. Radioactivity was monitored in the eluate by a Packard Flow Scintillation Analyzer. Total radioactivity for estrone and estradiol were determined in each sample and percent conversion of estrone to estradiol was calculated according to the following formula: % conversion = 100 × ({(cpm estradiol in sample with inhibitor)/[(cpm estrone in sample with inhibitor)+(cpm estradiol in sample with inhibitor)]})/({(cpm estradiol in sample without inhibitor)/[(cpm estrone in sample without inhibitor)+(cpm estradiol in sample without inhibitor)]}). [formula] [formula]
# Table 19: Inhibition of 17β-HSD enzyme type I
row,Inhibition of rec 17β-HSD1,SMILES
1,40.6%,COc1cc2c(cc1O)CCC1C2CCC2(C)C(=O)CC(CCCC(=O)N3CCCCC3)C12 (stereo not drawn) [Example 78]

# Same assay, conditions: inhibitor 1 µm; 30 nM 3H-estrone, 1 mM NADPH, 30 min at RT; read-out: Inhibition of rec 17β-HSD1
row,inhibition,SMILES
1,76.9%,C[C@]12CC[C@@H]3c4ccc(O)cc4CC[C@H]3[C@@H]1[C@H](CCC(=O)NCc1ccccc1)CC2(F)F [Example 125]
2,71.9%,CCOc1cc2c(cc1O)CC[C@H]1[C@@H]3[C@@H](CCCC(=O)N4CCCCC4)CC(=O)[C@@]3(C)CC[C@H]21 [Example 55]
3,71.7%,COc1cc(CNC(=O)CC[C@@H]2CC(F)(F)[C@@]3(C)CC[C@@H]4c5ccc(O)cc5CC[C@H]4[C@H]23)cc(OC)c1 [Example 128]
4,71.9%,CCCc1cc2c(cc1O)CC[C@H]1[C@@H]3[C@H](CCCC(=O)NCCc4c[nH]c5c(C)cccc45)CC(=O)[C@@]3(C)CC[C@H]21 [Example 34]
5,71.6%,COc1cc2c(cc1O)CC[C@H]1[C@@H]3[C@@H](CCCC(=O)Nc4ccc5cn[nH]c5c4)CC(=O)[C@@]3(C)CC[C@H]21 [Example 83]
6,70.6%,C[C@]12CC[C@@H]3c4ccc(O)cc4CC[C@H]3[C@@H]1[C@@H](CCCC(=O)NC1CCCCC1)CC2(F)F [Example 102]
7,79%,CCCc1cc2c(cc1O)CC[C@H]1[C@@H]3[C@H](CCCC(=O)NCc4cccnc4)CC(=O)[C@@]3(C)CC[C@H]21 [Example 32]
8,75.7%,CCOc1cc2c(cc1O)CC[C@H]1[C@@H]3[C@@H](CCCC(=O)NCc4ccc5c(c4)OCO5)CC(=O)[C@@]3(C)CC[C@H]21 [Example 45]
9,70.6%,COc1cc2c(cc1O)CC[C@H]1[C@@H]3[C@@H](CCCC(=O)NCc4ccccc4)CC(=O)[C@@]3(C)CC[C@H]21 [Example 71]
10,73.2%,COc1cc2c(cc1O)CC[C@H]1[C@@H]3[C@@H](CCCC(=O)NC4CCCCC4)CC(=O)[C@@]3(C)CC[C@H]21 [Example 67]
11,74%,C[C@]12CC[C@@H]3c4ccc(OCc5ccccc5)cc4CC[C@H]3[C@@H]1[C@H](C/C=C/C(=O)N1CCOCC1)c1cnoc12 [161']
12,90.6%,CCN(CC)C(=O)CC[C@@H]1CC(F)(F)[C@@]2(C)CC[C@@H]3c4ccc(O)cc4CC[C@H]3[C@H]12 [Example 133]
13,71.9%,C[C@]12CC[C@@H]3c4ccc(O)cc4CC[C@H]3[C@@H]1[C@H](CCC(=O)N1CCCCC1)CC2(F)F [Example 131]
14,76.9%,Cc1cccc2c(CCNC(=O)CC[C@@H]3CC(F)(F)[C@@]4(C)CC[C@@H]5c6ccc(O)cc6CC[C@H]5[C@H]34)c[nH]c12 [Example 129]
15,74.7%,CCCc1cc2c(cc1O)CC[C@H]1[C@@H]3[C@H](CCCC(=O)N(C)Cc4ccccc4)CC(=O)[C@@]3(C)CC[C@H]21 [Example 37]
16,68.3%,Cc1cccc2c(CCNC(=O)CCC[C@H]3CC(F)(F)[C@@]4(C)CC[C@@H]5c6ccc(O)cc6CC[C@H]5[C@H]34)c[nH]c12 [Example 111]
17,72.2%,CCOc1cc2c(cc1O)CC[C@H]1[C@@H]3[C@@H](CCCC(=O)NCCc4c[nH]c5c(C)cccc45)CC(=O)[C@@]3(C)CC[C@H]21 [Example 52]
18,88.6%,COc1ccc(CCN(C)C(=O)CC[C@@H]2CC(F)(F)[C@@]3(C)CC[C@@H]4c5ccc(O)cc5CC[C@H]4[C@H]23)cc1OC [Example 134]

row,inhibition,SMILES
1,76.9%,C[C@]12CC[C@@H]3c4ccc(O)cc4CC[C@H]3[C@@H]1[C@@H](CCCC(=O)N1CCCCC1)CC2(F)F [Example 113]
2,75%,CCOc1cc2c(cc1O)CC[C@H]1[C@@H]3[C@@H](CCCC(=O)NC4CCCCC4)CC(=O)[C@@]3(C)CC[C@H]21 [Example 44]
3,82.4%,COc1ccc(CCN(C)C(=O)CCC[C@H]2CC(F)(F)[C@@]3(C)CC[C@@H]4c5ccc(O)cc5CC[C@H]4[C@H]23)cc1OC [Example 116]
4,85%,C[C@]12CC[C@@H]3c4ccc(O)cc4CC[C@H]3[C@@H]1[C@H](CCC(=O)NC1CC1)CC2(F)F [Example 120]
5,76.7%,CCCc1cc2c(cc1O)CC[C@H]1[C@@H]3[C@H](CCCC(=O)N(C)CCc4ccc(OC)c(OC)c4)CC(=O)[C@@]3(C)CC[C@H]21 [Example 38]
6,92.5%,C[C@]12CC[C@@H]3c4ccc(O)cc4CC[C@H]3[C@@H]1[C@H](CCC(=O)NC1CCCCC1)CC2(F)F [Example 121]
7,70.4%,CCCc1cc2c(cc1O)CC[C@H]1[C@@H]3[C@H](CCCC(=O)NCCOC)CC(=O)[C@@]3(C)CC[C@H]21 [Example 41]
8,70.7%,C[C@]12CC[C@@H]3c4ccc(O)cc4CC[C@H]3[C@@H]1[C@@H](CCCC(=O)NCc1ccc(O)c(O)c1)CC2(F)F [Example 109]
9,77.9%,C[C@]12CC[C@@H]3c4ccc(O)cc4CC[C@H]3[C@@H]1[C@H](CCC(=O)NCc1ccc3c(c1)OCO3)CC2(F)F [Example 122]
10,78.1%,CCCc1cc2c(cc1O)CC[C@H]1[C@@H]3[C@H](CCCC(=O)N4CCCCC4)CC(=O)[C@@]3(C)CC[C@H]21 [Example 36]
11,68%,C[C@]12CC[C@@H]3c4ccc(O)cc4CC[C@H]3[C@@H]1[C@@H](CCCC(=O)NCc1ccccc1)CC2(F)F [Example 106]
12,69.7%,CCOc1cc2c(cc1O)CC[C@H]1[C@@H]3[C@@H](CCCC(=O)Nc4ccc5cn[nH]c5c4)CC(=O)[C@@]3(C)CC[C@H]21 [Example 59]
13,81.3%,C[C@]12CC[C@@H]3c4ccc(O)cc4CC[C@H]3[C@@H]1[C@H](CCC(=O)NCc1ccc(O)c(O)c1)CC2(F)F [Example 127]
14,75.8%,CCCc1cc2c(cc1O)CC[C@H]1[C@@H]3[C@H](CCCC(=O)Nc4ccc5cn[nH]c5c4)CC(=O)[C@@]3(C)CC[C@H]21 [Example 40]
15,72%,COc1cc2c(cc1O)CCC1C2CCC2(C)C(=O)CC(CCCC(=O)N3CCCCC3)C12 (stereo not drawn) [Example 78]
16,71.7%,CCCc1cc2c(cc1O)CC[C@H]1[C@@H]3[C@H](CCCC(=O)NCc4ccc(F)cc4F)CC(=O)[C@@]3(C)CC[C@H]21 [Example 42]
17,73.6%,CCCc1cc2c(cc1O)CC[C@H]1[C@@H]3[C@H](CCCC(=O)NCc4ccc5c(c4)OCO5)CC(=O)[C@@]3(C)CC[C@H]21 [Example 30]

row,SMILES,inhibition
1,"CCCc1cc2c(cc1O)CC[C@H]1[C@@H]3[C@H](CCCC(=O)NCc4ccccc4)CC(=O)[C@@]3(C)CC[C@H]21 [Example 2, N-Benzyl-4-(3-hydroxy-17-oxo-2-propyl-estra-1,3,5(10)-trien-15β-yl)-butyramide]",74.8%
2,"Cc1cnc(NC(=O)CC[C@@H]2CC(F)(F)[C@@]3(C)CC[C@@H]4c5ccc(O)cc5CC[C@H]4[C@H]23)s1 [Example 93, 3-(17,17-Difluoro-3-hydroxy-estra-1,3,5(10)-trien-15β-yl)-N-(5-methyl-thiazol-2-yl)-propionamide]",86.7%
3,"C[C@]12CC[C@@H]3c4ccc(O)cc4CC[C@H]3[C@@H]1[C@@H](CCCC(=O)N1CCOCC1)CC2(F)F [Example 91, 4-(17,17-Difluoro-3-hydroxy-estra-1,3,5(10)-trien-15a-yl)-1-morpholin-4-yl-butan-1-one]",85%
4,"C[C@]12CC[C@@H]3c4ccc(O)cc4CC[C@H]3[C@@H]1[C@H](CCCC(=O)N1CCOCC1)CC2(F)F [Example 90, 4-(17,17-Difluoro-3-hydroxy-estra-1,3,5(10)-trien-15β-yl)-1-morpholin-4-yl-butan-1-one]",81.6%
5,"CCCc1cc2c(cc1O)CC[C@H]1[C@@H]3[C@H](CCCC(=O)N4CCOCC4)CC(=O)[C@@]3(C)CC[C@H]21 [Example 6, 3-Hydroxy-15β-(4-morpholin-4-yl-4-oxo-butyl)-2-propyl-estra-1,3,5(10)-trien-17-one]",79.3%
6,"COCCc1cc2c(cc1O)CC[C@H]1[C@@H]3[C@H](CCCC(=O)NCc4ccccc4)CC(=O)[C@@]3(C)CC[C@H]21 [Example 3, N-Benzyl-4-(3-hydroxy-2-(2-methoxy-ethyl)-17-oxo-estra-1,3,5(10)-trien-15β-yl)-butyramide]",71.2%
